Experimental data: patent US6303621A, “Method for treating cancers using a diiodo thyronine analogue having no significant hormonal activity and a vinca alkaloid and compositions comprising the same” (priority 1999, dated 2001)
“Also recorded” adds a separate entry of the source.

Legend:
[1] = test system: MDA-MB-231 xenografts; assay: Inhibition of MDA-MB-231 xenografts in nude mice; format: in vivo, human mammary cancer xenograft in nude mice
Excerpt: The ability of human tumors to grow as xenografts in athymic mice (e.g., nude mice) provides a useful in vivo model for studying the biological response to therapies for human tumors. Since the first successful xenotransplantation of human tumors into athymic mice (Rygaard et al., 1969, Acta Pathol. Microbial. Scand. 77:758-760), many different human tumor cell lines (e.g., mammary, lung, genitourinary, gastrointestinal, head and neck, glioblastoma, bone and malignant melanomas) have been successfully transplanted and grown into nude mice. Human mammary tumor cell lines, including MCF-7, ZR75-1 and MDA-MB-231, have been established as subcutaneous grafts in nude mice (Warri et al., 1991, Intl. J. Cancer 49:616-23; Ozzello et al., 1980, Eur. J. Cancer 16:553-559; Osbourne et al., 1985, Cancer Res. 45:584-590; Siebert et al., 1983, Cancer Res. 43:2223-2239).
MDA-MB-231 (human mammary cancer) cells were obtained from American Type Culture Collection (Rockville, Md.) and maintained in the recommended growth media. Twenty nude mice were each inoculated subcutaneously with MDA-MB-231 cells (10^6 cells/[…]). To one group often mice, DIME was administered by gavage (250 mg/kg, 10 mL/kg in corn oil) once […] per day, 5 days per week, for a total of 32 days. The other (control) group of ten mice was given administered vehicle only according to the same dosing schedule. Tumors were measured twice weekly using a Vernier caliper, and the mean tumor volume was determined at each time point. Comparisons between groups were made using an unpaired, two-tailed t-test and the results were analyzed using analysis of variance.

[2] = test system: malignant tumor growth; assay: Activity of DIME in vivo (general statement)
[3] = test system: cells (DNA breaks); assay: DNA breaks in cells incubated with DIME; format: cell-based
[4] = test system: metaphase arrest in cancer cells; assay: Metaphase block (mitotic block); format: cell-based
Excerpt: Metaphase was quantitated as reported by Mendeleyev et al., International Journal of Oncology 10:689-695 (1997).
Since vincristine and vinblastine were equivalent here we illustrate only DIME-vinblastine interaction on mitotic block.

[5] = test system: tubulin α+β; assay: Inhibition of tubulin polymerization / assembly of microtubules; format: biochemical; settings: FIG. 4b
Method: The optical tests were performed as reported by Buki et al., International Journal of Oncology 10:911-913 (1997).

[6] = test system: thyroid; settings: rats; as compared to thyroxine; cited from earlier work
[7] = test system: DIME-tolerant clones
Method: DIME-tolerant clones DR6and DR 7 were isolated by incubation of cells in a mediim containing 1.5 μM DIME for 11 days. At that time surviving colonies were picked with the use of cloning rings and plated for growth in fresh mediim still containing 1.5 μM DIME. After two weeks of growth in the presence of drug the cells were aliquoted and frozen. For each experiment a vial of frozen cells was thawed, the cells were plated in the absence of drug, and incubated for 2-3 days in drug-free mediim.

[8] = test system: DIME-tolerant clones DR6 and DR7; assay: Colony formation of DIME-tolerant clones; format: cell-based, human; settings: concentrations that reduce colony formation by 10^3 in parent line
Excerpt: e. Colony formation was quantitated as reported by. Each colony of 50 cells is the outgrowth from one cell, plated 10 days before colony counting.

[9] = Toxicity, daily oral dosing in nude mice; format: in vivo; settings: daily oral dose 1 g/kg, 12-15 days
Method: Ten nude mice were administered a daily oral dose of ^14 C-labeled DIME (Compound 1) (1.0 g/kg, 0.1 mL in corn oil) for a period of 12-15 days.

[10] = test system: biosynthetic pathways of DNA, RNA or proteins; assay: Metabolic action and biosynthetic pathways of DNA, RNA or proteins
[11] = test system: non-malignant mouse pituitary adenoma; settings: in vivo; cited from earlier work
[12] = Serum half-life and bioavailability of 14C-labeled DIME; format: in vivo; settings: mice
Method: Mice were orally dosed with 126 mg/kg 14C-labeled DIME (Compound 1). After dosing, blood sampling times were 15 and 30 minutes and 1, 2, 4, 6, 8 and 24 hours. Aliquots (50 μL) of blood were assayed in a liquid scintillation counter and data expressed as microgram-equivalents per mL. The blood level data were analyzed by the […] method (Micromath, Salt Lake City, Utah). Parallel groups of mice were dosed intravenously with 24.5 mg/kg 14C-labeled DIME and blood sampling times were 10, 20 and 30 minutes and 1, 2, 4, 6 and 8 hours.

[13] = test system: microtubules; assay: Microtubule binding

half-life (t1/2) in serum [12]: 2 to 2.5 h
Binding to microtubules [13]: bind to microtubules
SMILES: COC(=O)c1cc(I)c(Oc2ccc(OC)cc2)c(I)c1 [DIME, methyl 3,5-diiodo-4-(4'-methoxyphenoxy) benzoate]
Growth of mammary cancer xenografts (MDA-MB-231) ([1]; 250 mg/kg by gavage once daily, 5 days a week for 32 days, nude mice): significant reduction of malignant tumor growth
MDA-MB-231 tumor volume, Day 14 ± SEM ([1]; DIME 250 mg/kg by gavage, 5 days per week, 32 days, control 284.6 ± 42.0, p = 0.06, in mm³ (unit assumed)): 172.0 ± 34.3
MDA-MB-231 tumor volume, Day 21 ± SEM ([1]; DIME 250 mg/kg by gavage, control 622.2 ± 58.1, p = 0.02, in mm³ (unit assumed)): 285.7 ± 62.4
MDA-MB-231 tumor volume, Day 32 ± SEM ([1]; DIME 250 mg/kg by gavage, control 1176.6 ± 222.4, p = 0.01, in mm³ (unit assumed)): 543.8
% decrease (tumor volume), Day 14 ([1]; DIME 250 mg/kg vs control): 40%
% decrease (tumor volume), Day 21 ([1]; DIME 250 mg/kg vs control): 54%
% decrease (tumor volume), Day 28 ([1]; DIME 250 mg/kg vs control): 56%
% decrease (tumor volume), Day 32 ([1]; DIME 250 mg/kg vs control): 54%
Activity in vivo [2]: highly active
DNA breaks [3]: induces DNA breaks
M-block [4]: induces M-block
Inhibition of assembly of microtubules, DIME versus DIPE [5]: equivalency; also recorded: Inhibitory effects
Inhibition of uptake of iodine into the thyroid [6]: 15%
Drug permeation in DIME-tolerant cells [7]: significant decrease of drug permeation
Inhibition of colony formation of DR6 and DR7 clones [8]: only marginal inhibition of colony formation
Ill effects [9]: remarkably nontoxic; also recorded: No ill effects were observed
Inhibition of biosynthetic pathways of DNA, RNA or proteins [10]: nor does it inhibit the biosynthetic pathways of DNA, RNA or proteins
Metabolic action [10]: no metabolic action
Growth of non-malignant mouse pituitary tumor [11]: no inhibitory activity
